pEC50: −log10 of the molar value. Counter-ions that a name gives are not always drawn.
Assays:
[1] = molecular target: Human CB2R (Cannabinoid receptor 2) (Homo sapiens (Human), UniProt P34972); assay: CB-2 in vitro cAMP assay (HTRF), inverse agonism; format: cell-based; conditions: mean where tested more than once
[2] = molecular target: Human CB1R (Cannabinoid receptor 1) (Homo sapiens (Human), UniProt P21554); assay: CB-1 in vitro cAMP assay (HTRF), inverse agonism; format: cell-based; conditions: mean where tested more than once
Sequence of Human CB1R (Cannabinoid receptor 1) (P21554 whole entry): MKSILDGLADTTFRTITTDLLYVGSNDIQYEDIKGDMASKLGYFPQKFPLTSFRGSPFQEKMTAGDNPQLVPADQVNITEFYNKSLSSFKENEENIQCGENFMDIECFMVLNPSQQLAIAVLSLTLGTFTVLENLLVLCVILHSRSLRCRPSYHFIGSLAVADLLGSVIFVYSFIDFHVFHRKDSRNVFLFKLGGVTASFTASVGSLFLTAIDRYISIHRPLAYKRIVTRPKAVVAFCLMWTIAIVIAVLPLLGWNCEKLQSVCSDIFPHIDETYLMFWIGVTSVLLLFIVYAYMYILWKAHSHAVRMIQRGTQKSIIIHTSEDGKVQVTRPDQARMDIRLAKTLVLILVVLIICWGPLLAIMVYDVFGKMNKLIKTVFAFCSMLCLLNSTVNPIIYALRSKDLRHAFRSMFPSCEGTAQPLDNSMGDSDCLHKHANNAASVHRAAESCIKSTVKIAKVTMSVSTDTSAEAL

Sequence of Human CB2R (Cannabinoid receptor 2) (P34972 whole entry): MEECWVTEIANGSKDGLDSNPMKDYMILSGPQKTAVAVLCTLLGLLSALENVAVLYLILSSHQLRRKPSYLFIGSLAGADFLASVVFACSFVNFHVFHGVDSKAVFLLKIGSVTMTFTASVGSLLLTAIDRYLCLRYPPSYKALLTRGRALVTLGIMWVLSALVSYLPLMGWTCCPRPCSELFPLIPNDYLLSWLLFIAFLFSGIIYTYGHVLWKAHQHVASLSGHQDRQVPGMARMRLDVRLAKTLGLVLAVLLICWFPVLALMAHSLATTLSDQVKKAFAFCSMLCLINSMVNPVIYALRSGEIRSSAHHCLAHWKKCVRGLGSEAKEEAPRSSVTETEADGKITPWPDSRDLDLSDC

Compound | pEC50 [1] | pEC50 [2]
O=C(CC(F)(F)F)N1CCC(Nc2cc(=O)[nH]c3ccc(C(c4ccc(Cl)cc4)c4ccc(Cl)cc4)cc23)CC1 [Compound 69, 6-[Bis(4-chlorophenyl)methyl]-4-{[1-(3,3,3-trifluoropropanoyl)piperidin-4-yl]amino}quinolin-2(1H)-one] | 5.38 | 8.00
O=C(O)c1ccc(C(=O)N2CCC(Nc3cc(=O)[nH]c4ccc(C(c5ccc(Cl)cc5)c5ccc(Cl)cc5)cc34)CC2)cc1 [Compound 116, 4-{[4-({6-[Bis(4-chlorophenyl)methyl]-2-oxo-1,2-dihydroquinolin-4-yl}amino)piperidin-1-yl]carbonyl}benzoic acid] | < 5.00 | 6.36
CS(=O)(=O)N1CCC(Nc2cc(=O)[nH]c3ccc(C(c4ccc(Cl)cc4)c4ccc(Cl)cc4)cc23)CC1 [Compound 63, 6-[Bis(4-chlorophenyl)methyl]-4-{[1-(methylsulfonyl)piperidin-4-yl]amino}quinolin-2(1H)-one] | 5.58 | 7.03
O=c1cc(/C=C/c2ccccc2)c2cc(C(c3ccc(Cl)cc3)c3cccs3)ccc2[nH]1 (stereo not drawn) [Compound 21, 6-[(4-Chlorophenyl)(thiophen-2-yl)methyl]-4-[(E)-2-phenylethenyl]quinolin-2(1H)-one] | < 5.00 | 5.38
O=c1cc(NC2CCNCC2)c2cc(C(c3ccc(Cl)cc3)c3nccs3)ccc2[nH]1 (stereo not drawn) [Compound 39, 6-((4-chlorophenyl)(thiazol-2-yl)methyl)-4-(piperidin-4-ylamino)quinolin-2(1H)-one] | < 5.00 | 6.22
NC(=O)c1ccc(Nc2cc(=O)[nH]c3ccc(C(c4ccc(Cl)cc4)c4ccc(Cl)cc4)cc23)cc1 [Compound 87, 4-({6-[Bis(4-chlorophenyl)methyl]-2-oxo-1,2-dihydroquinolin-4-yl}amino)benzamide] | < 5.00 | 5.50
OC(c1ccc(Cl)cc1)(c1ccc(Cl)cc1)c1ccc2nccc(/C=C/c3ccccc3)c2c1 [Compound 501, (E)-bis(4-chlorophenyl)(4-styrylquinolin-6-yl)methanol] | < 5.00 | < 5.00
O=c1cc(N2CCN(S(=O)(=O)C(F)(F)F)CC2)c2cc(C(c3ccc(Cl)cc3)c3nccs3)ccc2[nH]1 (stereo not drawn) [Compound 35, 6-[(4-Chlorophenyl)(1,3-thiazol-2-yl)methyl]-4-{4-[(trifluoromethyl)sulfonyl]-piperazin-1-yl}quinolin-2(1H)-one] | < 5.00 | 6.49
O=c1cc(Cc2ccc(OC(F)(F)F)cc2)c2cc(C(c3ccc(Cl)cc3)c3nccs3)ccc2[nH]1 (stereo not drawn) [Compound 515, 6-((4-chlorophenyl)(thiazol-2-yl)methyl)-4-(4-(trifluoromethoxy)benzyl)quinolin-2(1H)-one] | < 5.00 | 6.44
CCOC(=O)CCCCOc1cc(C(c2ccc(Cl)cc2)c2ccc(Cl)cc2)cc2c(NC3CCN(S(=O)(=O)C(F)(F)F)CC3)ccnc12 [Compound 540, ethyl 5-((6-(bis(4-chlorophenyl)methyl)-4-((1-((trifluoromethyl)sulfonyl)piperidin-4-yl)amino)quinolin-8-yl)oxy)pentanoate] | 5.15 | 7.09
OC(c1ccc(Cl)cc1)(c1ccc2nccc(/C=C/c3ccccc3)c2c1)c1cscn1 (stereo not drawn) [Compound 517, (E)-(4-chlorophenyl)(4-styrylquinolin-6-yl)(thiazol-4-yl)methanol] | 6.47 | 6.05
O=C(O)c1ccc(S(=O)(=O)N2CCC(Nc3cc(=O)[nH]c4ccc(C(c5ccc(Cl)cc5)c5ccc(Cl)cc5)cc34)CC2)s1 [Compound 130, 5-[4-([6-[bis(4-chlorophenyl)methyl]-2-hydroxyquinolin-4-yl]amino)piperidine-1-sulfonyl]thiophene-2-carboxylic acid, trifluoroacetic acid salt] | 6.16 | 6.95
O=c1cc(N[C@@H]2CCN(S(=O)(=O)C(F)(F)F)C2)c2cc(C(c3ccc(Cl)cc3)c3nccs3)ccc2[nH]1 (stereo partly drawn) [Compound 47, 6-[(4-Chlorophenyl)(1,3-thiazol-2-yl)methyl]-4-({(3R)-1-[(trifluoromethyl)sulfonyl]-pyrrolidin-3-yl}amino)quinolin-2(1H)-one] | 5.34 | 7.12
O=C(O)CCCNc1cc(C(c2ccc(Cl)cc2)c2ccc(Cl)cc2)cc2c(NC3CCN(S(=O)(=O)C(F)(F)F)CC3)cc(=O)[nH]c12 [Compound 108, 4-((6-(bis(4-chlorophenyl)methyl)-2-oxo-4-((1-((trifluoromethyl)sulfonyl)piperidin-4-yl)amino)-1,2-dihydroquinolin-8-yl)amino)butanoic acid] | 6.34 | 6.51
O=C(O)COc1cc(NC2CCN(S(=O)(=O)C(F)(F)F)CC2)c2cc(C(c3ccc(Cl)cc3)c3ccc(Cl)cc3)ccc2n1 [Compound 532, ({6-[Bis(4-chlorophenyl)methyl]-4-({1-[(trifluoromethyl)sulfonyl]-piperidin-4-yl}amino)quinolin-2-yl}oxy)acetic acid] | 5.17 | 5.89
O=c1cc(NC2CCN(S(=O)(=O)C(F)(F)F)CC2)c2cc(C(c3ccc(Cl)cc3)c3ccc(Cl)cc3)cc(NC3CCN(S(=O)(=O)C(F)(F)F)CC3)c2[nH]1 [Compound 99] | < 5.00 | < 5.00
O=C(O)c1ccc(Nc2cc(=O)[nH]c3ccc(C(c4ccc(Cl)cc4)c4ccc(Cl)cc4)cc23)cc1 [Compound 86, 4-({6-[Bis(4-chlorophenyl)methyl]-2-oxo-1,2-dihydroquinolin-4-yl}amino)benzoic acid] | < 5.00 | < 5.00
COc1ccc(C(O)(c2ccc(Cl)cc2)c2ccc3nc(OC(C)(C)C)cc(/C=C/c4ccccc4)c3c2)cc1 (stereo not drawn) [Compound 512, (E)-(2-(tert-butoxy)-4-styrylquinolin-6-yl)(4-chlorophenyl)(4-methoxyphenyl)methanol] | < 5.00 | < 5.00
COC(=O)c1ccc(Nc2cc(=O)[nH]c3ccc(C(c4ccc(Cl)cc4)c4ccc(Cl)cc4)cc23)cc1 [Compound 85, Methyl 4-({6-[bis(4-chlorophenyl)methyl]-2-oxo-1,2-dihydroquinolin-4-yl}amino)benzoate] | < 5.00 | 7.15
CCOC(=O)CCCNc1cc(C(c2ccc(Cl)cc2)c2ccc(Cl)cc2)cc2c(NC3CCN(S(=O)(=O)C(F)(F)F)CC3)cc(=O)[nH]c12 [Compound 104, Ethyl 4-({6-[bis(4-chlorophenyl)methyl]-2-oxo-4-({1-[(trifluoromethyl)sulfonyl]-piperidin-4-yl}amino)-1,2-dihydroquinolin-8-yl}amino)butanoate] | < 5.00 | 5.95
O=C(O)Cc1ccc(Nc2cc(=O)[nH]c3ccc(C(c4ccc(Cl)cc4)c4ccc(Cl)cc4)cc23)cc1 [Compound 125, [4-({6-[Bis(4-chlorophenyl)methyl]-2-oxo-1,2-dihydroquinolin-4-yl}amino)phenyl]acetic acid] | < 5.00 | 5.61
COC/C=C/c1cc(C(c2ccc(Cl)cc2)c2ccc(Cl)cc2)cc2c(NC3CCN(S(=O)(=O)C(F)(F)F)CC3)cc(OC)nc12 [Compound 547, 6-(bis(4-chlorophenyl)methyl)-2-methoxy-8-(3-methoxyprop-1-en-1-yl)-N-(1-((trifluoromethyl)sulfonyl)piperidin-4-yl)quinolin-4-amine] | < 4.38 | 7.44
Cc1ccc(/C=C/c2cc(=O)[nH]c3ccc(C(c4ccc(Cl)cc4)c4cccs4)cc23)cc1 (stereo not drawn) [Compound 27, 6-[(4-Chlorophenyl)(thiophen-2-yl)methyl]-4-[(E)-2-(4-methylphenyl)ethenyl]-quinolin-2(1H)-one] | < 5.00 | 6.35
COc1cc(C(c2ccc(Cl)cc2)c2ccc(Cl)cc2)cc2c(NC3CCN(S(=O)(=O)C(F)(F)F)CC3)ccnc12 [Compound 536, 6-[bis(4-chlorophenyl)methyl]-8-methoxy-N-[1-(trifluoromethane)sulfonylpiperidin-4-yl]quinolin-4-amine] | 6.69 | 7.00
Clc1ccc(C(c2ccc3nccc(/C=C/c4ccccc4)c3c2)c2cscn2)cc1 (stereo not drawn) [Compound 520, 6-[(4-Chlorophenyl)(1,3-thiazol-4-yl)methyl]-4-[(E)-2-phenylethenyl]quinoline] | < 5.00 | 6.77
O=C(O)c1cccc(S(=O)(=O)N2CCC(Nc3cc(=O)[nH]c4ccc(C(c5ccc(Cl)cc5)c5ccc(Cl)cc5)cc34)CC2)c1 [Compound 84, 3-{[4-({6-[Bis(4-chlorophenyl)methyl]-2-oxo-1,2-dihydroquinolin-4-yl}amino)piperidin-1-yl]sulfonyl}benzoic acid] | 5.05 | 6.57
CCOC(=O)CCCNc1cc(C(O)(c2ccc(Cl)cc2)c2ccc(Cl)cc2)cc2c(NC3CCN(S(=O)(=O)C(F)(F)F)CC3)cc(OC(C)(C)C)nc12 [Compound 529, Ethyl 4-({6-[bis(4-chlorophenyl)(hydroxy)methyl]-2-tert-butoxy-4-({1-[(trifluoromethyl)sulfonyl]-piperidin-4-yl}amino)quinolin-8-yl}amino)butanoate] | < 5.00 | < 5.00
CC(C)(C)OC(=O)/N=C(/NC(=O)OC(C)(C)C)N1CCC(Nc2cc(=O)[nH]c3ccc(C(c4ccc(Cl)cc4)c4ccc(Cl)cc4)cc23)CC1 [Compound 119, (Z)-tert-butyl ((4-((6-(bis(4-chlorophenyl)methyl)-2-oxo-1,2-dihydroquinolin-4-yl)amino)piperidin-1-yl)((tert-butoxycarbonyl)imino)methyl)carbamate] | < 5.00 | 6.89
O=c1cc(NCc2ccc(C(F)(F)F)cn2)c2cc(C(c3ccc(Cl)cc3)c3ccc(Cl)cc3)ccc2[nH]1 [Compound 78, 6-[Bis(4-chlorophenyl)methyl]-4-({[5-(trifluoromethyl)pyridin-2-yl]methyl}amino)quinolin-2(1H)-one] | < 5.00 | 6.77
O=C(O)c1ccc(S(=O)(=O)N2CCC(Nc3cc(=O)[nH]c4ccc(C(c5ccc(Cl)cc5)c5ccc(Cl)cc5)cc34)CC2)cc1 [Compound 122, 4-((4-((6-(bis(4-chlorophenyl)methyl)-2-oxo-1,2-dihydroquinolin-4-yl)amino)piperidin-1-yl)sulfonyl)benzoic acid] | 6.62 | 6.80
